Article PMC8456496 (2021)

Tests used:
Assay in all cases: fluorescence light-switch
[1] = tested on: poly AT (DNA, duplex) ATATATATATATATATATAT; conditions: 50 mM NaCl, 10 μM complex, 50 μM bp DNA
[2] = tested on: poly A poly T (DNA, duplex) AAAAAAAAAAAAAAAAAAAAA/TTTTTTTTTTTTTTTTTTTTT; conditions: 50 mM NaCl; 5 mM Tris-HCl pH 7.0, 1% DMSO, RT; 10 μM complex, 50 μM bp DNA; emission near 600 nm
[3] = tested on: poly T (DNA, single strand) TTTTTTTTTTTTTTTTTTTTT; conditions: 50 mM NaCl; 5 mM Tris-HCl pH 7.0, 1% DMSO, RT; 10 μM complex, 50 μM DNA; emission near 600 nm

CN(C)Cc1[c-]cccc1.[Pt+2].c1ccc2cc3nc4c5cccnc5c5ncccc5c4nc3cc2c1
binding ([1]; 5 mM Tris-HCl pH 7.0, 1% DMSO, RT, excimer emission at 599 nm): yes | binding [2]: yes | binding [3]: yes

CN(C)Cc1[c-]cccc1.[Pt+2].c1ccc2nc3c4cccnc4c4ncccc4c3nc2c1
binding ([1]; 5 mM Tris-HCl pH 7.0, RT, emission at 431 nm): yes

CN(C)Cc1[c-]cccc1.[Pt+2].c1cnc2c(c1)c1nccnc1c1cccnc12
binding ([1]; 5 mM Tris-HCl pH 7.0, RT, emission at 438 nm): yes
